Publication PMC11394424, “The RAL Small G Proteins Are Clinically Relevant Targets in Triple Negative Breast Cancer” (Cancers, 2024)

Target: T1, RALA (Homo sapiens, UniProt P11233)
T1 construct: recombinant RALA, site-specifically biotinylated on the N-terminus
T1 sequence (P11233 1-203): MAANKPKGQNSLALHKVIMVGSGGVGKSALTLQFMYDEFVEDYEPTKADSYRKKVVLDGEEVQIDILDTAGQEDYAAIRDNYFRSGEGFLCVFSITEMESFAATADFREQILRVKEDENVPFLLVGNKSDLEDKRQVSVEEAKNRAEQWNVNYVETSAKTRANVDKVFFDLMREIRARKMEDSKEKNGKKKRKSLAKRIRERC
Assay: SPR (Biacore 8K, steady-state affinity, biotinylated RALA on SA chip)
Format: binding

Kd: 0.948 µM
Substance: OSURALi
